# Reference: PMC6132986, “Assessing the toxicity of thiamethoxam, in natural LUFA 2.2 soil, through three generations of Folsomia candida” (Ecotoxicology (London, England), 2018)
# Several values for one entry are separate records, joined by “and”; a condition that tells them apart may be missing. Equal values may be shown once. Read-outs that look alike come from different tables or passages of the source.
# Key:
# [1] = pH 7, 20°C; ref Jeschke et al. [2011]; cited from earlier work
# Folsomia candida [2] = assay: Folsomia candida multigeneration (P, F1, F2) survival and reproduction test in freshly spiked LUFA 2.2 soil; assay type: in vivo; settings: nominal concentrations
# Method: All tests were performed using natural standard LUFA 2.2 soil (LUFA Speyer, Germany), having approximately 1.6% organic carbon, water holding capacity (WHC) of 45%, and soil pH (0.01 M CaCl2) measured in a preliminary test, ranging between 5.03 and 5.87.
# Stock solutions of both compounds were prepared in milli-Q water in order to spike the chemicals in the test soil and at the same time bring its moisture content to 50% of the water holding capacity (WHC). The concentration range used for both compounds was: Control −0.04 −0.12 −0.37 −1.1 −3.3 −10 mg a.s./kg dry soil. Due to the toxic effect of the neonicotinoids, the three highest concentrations had to be dropped for F1 and F2 generations. Tests were performed in 100 ml glass jars, containing 30 g moist soil, using five replicate test jars with animals, and two replicates containing approximately 15 g of soil each, without animals (soil analysis). All the test jars were weighed at the start of the test, so the water loss could be checked and replenished, if needed, on a weekly basis.
# Folsomia candida Willem 1902 is a cosmopolitan arthropod, belonging to the Collembola order, which is phylogenetically related to the Insecta. The family Isotomidae have a ventral tube or collophore which is involved in the exchange of fluids with the external environment, being an important route of exposure to contaminants present in the pore water. Sexual maturity of F. candida is achieved between 21 to 24 days after hatching (sixth instar), and each individual can lay about 30 to 50 eggs per batch (Fountain and Hopkin [2005]). Adults of this species were taken from cultures at the Department of Ecological Science at the Vrije Universiteit in Amsterdam. In order to obtain synchronized animals, adults were transferred from the culture to 125 ml translucent plastic boxes with a 2 cm layer of plaster of Paris and activated charcoal (8:1), moistened with water, and left for a period of 2–3 days to lay eggs, after which they were removed. The eggs were incubated under a 12 h light/12 h dark regime at 20°C and 75% relative humidity, where they hatched. Juveniles of 10–12 days old were used for starting the test for the parental (P) generation.
# Ten age-synchronized animals (10–12 days old) were added to the replicate test jars in generation P. For generations F1 and F2 the age of the animals transferred was around 8–9 days. […] The same procedure was performed for ending the tests with the F1 (after 35–36 days) and F2 (28 days) generations. At the end of the tests, the jars were flooded with water to allow the animals to float and being photographed using a Nikon COOLPIX P510 camera. The images were analysed using the software ImageJ, a Java-based processing program adjusted for counting the animals. For the P and F1 generations, only the juveniles produced in all replicates of each concentration were transferred, using a sieve, to a single container with a plaster of Paris bottom, and left overnight in a climate room, at 20 ± 2 °C, with a 75% relative humidity and a photoperiod of 16:8 h […]. On the following day, batches of 10 randomly selected animals were transferred to jars, with their respective concentration, filled with soil freshly spiked, and covered with an opaque black plastic lid, loosely attached to the rim to allow for aeration. At the start and every week a few grains of dry baker’s yeast (Instant yeast from Algist Bruggeman N.V, Ghent, Belgium) and water were added to the test vessels if needed.
# All the dose-response data was analysed using the package “drc”(dose response curve) in the software R, using a general model fitting function–drm, with the option for model select (Ritz and Streibig [2005]). The endpoints LC50, addressing the effects on adult survival, and ECx, addressing sub-lethal effects on the juvenile population were expressed on the basis of nominal soil concentrations.
# [3] = cited from earlier work
# [4] = Chemical analysis (LC-MSMS) and degradation of thiamethoxam in LUFA 2.2 soil; assay type: physicochemical
# Method: The samples were analysed for thiamethoxam by the commercial certified analytical laboratory Groen Agro Control in Delfgauw, The Netherlands, using LC-MSMS. Detection limit was 0.01 mg/kg dry soil.
# Using data on the measured concentrations of thiamethoxam, half-life (DT50) values were estimated assuming first order degradation kinetics. The equation C = C0 × e^−k×t was fitted to the data, with C = concentration at time t in days, C0 is concentration at t = 0 and k = degradation rate constant (day^−1). DT50 was derived as ln(2)/k.
# Folsomia candida [5] = settings: cited from earlier work
# [6] = F1 generation, 35-36 days exposure
# [7] = F1 generation, 35-36 days exposure, listed as pure thiamethoxam
# [8] = F2 generation, 28 days exposure
# [9] = F2 generation, 28 days exposure, listed as pure thiamethoxam
# [10] = LUFA 2.2 soil, ref De Lima e Silva et al. [2017], van Gestel et al. [2017]
# [11] = Lufa 2.2 soil, ref de Lima e Silva et al. [2017]
# [12] = Lufa 2.2 soil, ref van Gestel et al. [2017]
# [13] = sphagnum peat (10%), kaolinite clay (20%), quartz sand (70%), ref Reynolds [2008]
smiles,measurement,setting,value
"CN1COCN(Cc2cnc(Cl)s2)/C1=N\[N+](=O)[O-] [Thiamethoxam Pure, thiamethoxam]",Log KOW,[1],−0.13
same,octanol-water partition coefficient,[1],0.741
same,EC50 (reproduction),Folsomia candida [2]; [6],0.23 (0–0.52) mg a.s./kg dry soil
same,LC50 (adult survival),Folsomia candida [2]; [6],>0.37 mg a.s./kg dry soil
same,EC50 (reproduction),Folsomia candida [2]; [7],0.23 mg a.s./kg dry soil
same,LC50 (adult survival),Folsomia candida [2]; [7],> 0.37 mg a.s./kg dry soil
same,EC10 (reproduction),Folsomia candida [2]; F1 generation,0.06 (0–0.14) mg a.s./kg dry soil
same,EC20 (reproduction),Folsomia candida [2]; F1 generation,0.09 (0–0.20) mg a.s./kg dry soil
same,EC50 (reproduction),Folsomia candida [2]; [8],0.30 (0.09–0.50) mg a.s./kg dry soil
same,LC50 (adult survival),Folsomia candida [2]; [8],>0.37 mg a.s./kg dry soil
same,EC50 (reproduction),Folsomia candida [2]; [9],0.30 mg a.s./kg dry soil
same,LC50 (adult survival),Folsomia candida [2]; [9],> 0.37 mg a.s./kg dry soil
same,EC10 (reproduction),Folsomia candida [2]; F2 generation,0.15 (0–0.64) mg a.s./kg dry soil
same,EC20 (reproduction),Folsomia candida [2]; F2 generation,0.20 (0–0.63) mg a.s./kg dry soil
same,EC50 (reproduction),"Folsomia candida [2]; Parental generation, 28 days exposure (Actara 27 days)",0.23 (0.20–0.30) mg a.s./kg dry soil
same,LC50 (adult survival),"Folsomia candida [2]; Parental generation, 28 days exposure (Actara 27 days), 95% CI in brackets",0.32 (0.30–0.40) mg a.s./kg dry soil
same,LC50 (adult survival),"Folsomia candida [2]; Parental generation, 28 days exposure (Actara 27 days), 95% CI in brackets, listed as pure thiamethoxam",0.32–0.35 mg a.s./kg dry soil and 0.32 mg a.s./kg dry soil
same,EC50 (reproduction),"Folsomia candida [2]; Parental generation, 28 days exposure (Actara 27 days), listed as pure thiamethoxam",0.23–0.25 mg a.s./kg dry soil
same,EC10 (reproduction),Folsomia candida [2]; Parental generation,0.07 (0.03–0.10) mg a.s./kg dry soil
same,EC20 (reproduction),Folsomia candida [2]; Parental generation,0.12 (0.070–0.20) mg a.s./kg dry soil
same,half-life in soil,[3]; ref Bonmatin et al. [2015],≤ 355 days
same,half-life,"[4]; LUFA 2.2 soil, average over nominal 0.12-1.1 mg/kg dry soil, read-out: DT50 (half-life in soil), average (converted)",139 days
same,"DT50 (half-life in soil), range over the concentrations","[4]; LUFA 2.2 soil, nominal 0.12-1.1 mg/kg dry soil",112 to 165 days
same,half-life,"[4]; LUFA 2.2 soil, nominal 0.12-1.1 mg/kg dry soil, read-out: DT50 (half-life in soil), range over the concentrations",112 to 156 days
same,Concentration in soil as % of the nominal,"[4]; first day of the experiment (t = 0), pure and Actara treatments together",75–100%
same,half-life at 0.12 mg/kg dry soil,"[4]; nominal 0.12 mg/kg dry soil, LUFA 2.2 soil, first order degradation kinetics, read-out: DT50 (half-life in soil) (converted)",165 days
same,half-life at 0.37 mg/kg dry soil,"[4]; nominal 0.37 mg/kg dry soil, LUFA 2.2 soil, first order degradation kinetics, read-out: DT50 (half-life in soil) (converted)",140 days
same,half-life at 1.1 mg/kg dry soil,"[4]; nominal 1.1 mg/kg dry soil, LUFA 2.2 soil, first order degradation kinetics, read-out: DT50 (half-life in soil) (converted)",112 days
same,Recovery Rate,"[4]; t = 0, nominal 0.12 mg/kg dry soil",75%
same,Measured Concentration of thiamethoxam in soil,"[4]; t = 0, nominal 0.12 mg/kg dry soil, LUFA 2.2 soil",0.09 mg/kg dry soil
same,Recovery Rate,"[4]; t = 0, nominal 0.37 mg/kg dry soil",84%
same,Measured Concentration of thiamethoxam in soil,"[4]; t = 0, nominal 0.37 mg/kg dry soil, LUFA 2.2 soil",0.31 mg/kg dry soil
same,Recovery Rate,"[4]; t = 0, nominal 1.1 mg/kg dry soil",85%
same,Measured Concentration of thiamethoxam in soil,"[4]; t = 0, nominal 1.1 mg/kg dry soil, LUFA 2.2 soil",0.94 mg/kg dry soil
same,Recovery Rate,"[4]; t = 28 days, nominal 0.12 mg/kg dry soil",66%
same,Measured Concentration of thiamethoxam in soil,"[4]; t = 28 days, nominal 0.12 mg/kg dry soil, LUFA 2.2 soil",0.08 mg/kg dry soil
same,Measured Concentration of thiamethoxam in soil,"[4]; t = 28 days, nominal 0.37 mg/kg dry soil, LUFA 2.2 soil",0.27 mg/kg dry soil
same,Recovery Rate,"[4]; t = 28 days, nominal 1.1 mg/kg dry soil",72%
same,Measured Concentration of thiamethoxam in soil,"[4]; t = 28 days, nominal 1.1 mg/kg dry soil, LUFA 2.2 soil",0.79 mg/kg dry soil
"O=[N+]([O-])NC1=NCCN1Cc1ccc(Cl)nc1 [Imidacloprid, imidacloprid]",EC50,Folsomia candida [5]; [10],0.26–0.29 mg a.s./kg dry soil
same,LC50,Folsomia candida [5]; [10],0.44–0.47 mg a.s./kg dry soil
same,EC50,Folsomia candida [5]; [11],0.26 mg a.s./kg
same,LC50,Folsomia candida [5]; [11],0.47 mg a.s./kg
same,EC50,Folsomia candida [5]; [12],0.29 mg a.s./kg
same,LC50,Folsomia candida [5]; [12],0.44 mg a.s./kg
same,EC50,Folsomia candida [5]; [13],0.26 mg a.s./kg
same,LC50,Folsomia candida [5]; [13],0.86 mg a.s./kg
N#C/N=C1\SCCN1Cc1ccc(Cl)nc1 [thiacloprid],half-life in soil,[3]; ref Van Gestel et al. [2017],10 to 12 days
